Results reported in patent publication US5698529A, “Chemotherapeutic compositions” (Supratek Pharma, Inc., priority 1996, dated 1997).
Converted amounts (≈) assume the structure as drawn.

Tests used:
[1] = test system: human ovarian cancer cells (CRL157); experiment: Cytotoxicity to human ovarian cancer cells (CRL157), Example 3; assay type: cell-based
Protocol: (§1) B. Human ovarian carcinoma cells (CRL157) are precultured in 1% solution of the same block copolymer but without daunorubicin in RPMI 1640 medium supplemented with 10% calf fetal serum. The preparation of part A is added and the mixture is incubated for 60 minutes at 37° C. and the cells then washed three times with RPMI 1640 and cultured in RPMI 1640 supplemented with 10% calf fetal serum for 3 days {Prep. A}. Cytotoxicity is measured, both for this preparation and a parallel preparation of free daunorubicin {Prep. B}, using the method of Alley et al., Cancer Res., 48, 589-601 (1988). The results are as follows:
(§2) A. A 1:1.5 mixture of block copolymers of poly(oxyethylene)-poly(oxypropylene) (pluronics P-85 and L-64) having individual ratios (n) of (oxypropylene) to (oxyethylene) blocks of 1.00 and 1.50, respectively, and a combined value (N) of 1.30, is diluted with RPMI 1640 medium to a final concentration of 2.0% at 4° C. The mixture is incubated for 30 minutes at 37° C. and then sterilely filtered through a 0.22 μm filter. An equal volume of a solution of 200 μg daunorubicin in RPMI 1640 medium is added and this mixture is incubated for 30 minutes at 37° C.
B. Cytotoxicity to human ovarian cancer cells (CRL157) is measured, both for this preparation {Prep. A} and a parallel preparation of free daunorubicin {Prep. B} as described in Example 1B.

[2] = test system: human T-lymphoma (Jurkat) cells; experiment: Cytotoxicity to human T-lymphoma (Jurkat) cells, Example 1; assay type: cell-based
Protocol: (§3) A. A block copolymer of poly(oxyethylene)-poly(oxypropylene) in which N=0.25 (Pluronic F-68) is diluted with RPMI 1640 medium to a final concentration of 2.0% at 4° C. The mixture is incubated for 30 minutes at 37° C. and then sterilely filtered through a 0.22 μm filter. An equal volume of a solution of 200 μg daunorubicin in RPMI 1640 medium is added and this mixture is incubated for 30 minutes at 37° C.
as §1
Following the same procedure, cytotoxicity is determined against human T-lymphoma (Jurkat) cells: […]

MTD in mice = conditions: mouse, in vivo, ip, C57B1/6 female mice, 14 days
From the text: B and Prep. A, respectively}, and are observed for 14 days.
The MTD is defined as a dose which leads to no daunorubicin-deaths (any higher dose leads to the daunorubicin-related death of at least 1 animal per group). The experiment is repeated twice. The results are reproducible with less that 10% variation.

[3] = test system: human breast cancer (MCF-7); experiment: Cytotoxicity against daunorubicin-sensitive human breast cancer (MCF-7); assay type: cell-based; conditions: MCF7
From the text: The daunorubicin composition of Example 3 {Prep. […] B}.

SKVO3 cells = experiment: cells; assay type: cell-based; conditions: Homo sapiens; SKVO3, drug-sensitive; read-out: IC50
From the text: (§4) The antineoplastic agent vinblastine is incorporated into the block copolymer mixture described in Example 3.
(§5) The antineoplastic agent mitomycin C is incorporated into the block copolymer mixture described in Example 3.
(§6) The antineoplastic agent methotrexate is incorporated into the block copolymer mixture described in Example 3.
(§7) The antineoplastic agent daunorubicin is incorporated into the block copolymer mixture described in Example 3.

SKVLB cells [4] = experiment: cells; assay type: cell-based; conditions: Homo sapiens
From the text: as §4, §5, §6, §7

SKVLB cells [5] = experiment: Cytotoxic activity of plasma of inoculated mice on SKVLB cells; assay type: cell-based, human
Protocol: Anti-neoplastic activity is determined by evaluation of the cytotoxic activity of plasma of mammals inoculated with the test composition (see de Valeriola et el., Cancer Chemother. Pharmacol. 29, 133-140, 1991).
Groups (6 animals/group) of C57B1/6 7-week-old female mice are inoculated i.v. (via the tail vein) with free or micellar (N=1.3) daunorubicin obtained as described in Example 3 {Prep. B and Prep. A, respectively}. Drug concentrations (MTD) are adjusted so that a maximum volume of 0.1 mL is injected in each mouse. The experiment is repeated twice.
To obtain plasma samples, blood (10 μl) is collected from the tail artery one hour after drug administration, diluted 1:10 with sterile RPMI 1640 medium, and centrifuged at 400 g for 15 minutes. […] The cells are incubated for two hours at 37° C. and 5% CO2, and then washed three times with RPMI 1640. The pretreated cells are incubated in RPMI 1640 supplemented with 10% fetal calf serum at 37° C. and 5% CO2 for three days, after which cytotoxicity is determined as described in Example 1.
The procedure of Example 16 is repeated utilizing SKVLB and SRVO3 cells.

[6] = test system: normal human mononuclear cells; experiment: Cytotoxicity in normal human mononuclear cells, Example 4; assay type: cell-based
Protocol: as §1, §2
Daunorubicin in the composition of Example 3 is evaluated for cytotoxicity in (i) human T-lymphoma (Jurkat) cells as described in Example 1 and (ii) normal human mononuclear cells.

[7] = test system: human ovarian carcinoma cells (CRL157); experiment: Cytotoxicity to human ovarian carcinoma cells (CRL157), Example 1; assay type: cell-based; conditions: Ovarian carcinoma cell
Protocol: as §3
as §1, with “(1988).” for “(1988). The results are as follows:”

COc1cccc2c1C(=O)c1c(O)c3c(c(O)c1C2=O)C[C@@](O)(C(C)=O)C[C@@H]3O[C@H]1C[C@H](N)[C@H](O)[C@H](C)O1 [Prep. B, daunorubicin] gave an inhibition at 0.0032 µg/mL [1] of 2%, an inhibition at 0.016 µg/mL [1] of 10% and an inhibition at 0.08 µg/mL [1] of 29%. The inhibition at 0.4 µg/mL [1] was 50%, the inhibition at 2 µg/mL [1] was 81% and the inhibition at 10 µg/mL [1] was 100%. The inhibition at 50 µg/mL [1] was 100%, the inhibition at 0.0032 µg/mL [2] was 22% and the inhibition at 0.016 µg/mL [2] was 44%. It also gave an inhibition at 0.08 µg/mL [2] of 51%, an inhibition at 0.4 µg/mL [2] of 84% and an inhibition at 2 µg/mL [2] of 100%. The inhibition at 10 µg/mL [2] was 100%, the inhibition at 50 µg/mL [2] was 100% and the MTD at 336 h (MTD in mice) was 2 mg/kg. It also gave an inhibition at 0.016 µg/mL [3] of 15%, an inhibition at 0.08 µg/mL [3] of 43% and an inhibition at 0.4 µg/mL [3] of 69%. For the same compound, the inhibition at 2 µg/mL [3] was 91%, the inhibition at 10 µg/mL [3] was 100% and the inhibition at 50 µg/mL [3] was 100%. For the same compound, the IC50 (SKVO3 cells) was 0.62 µg/mL (≈ 1.18 µM), the IC50 (SKVLB cells [4]) was 5.85 µg/mL (≈ 11.1 µM) and the “Inhibition, %” value (SKVLB cells [5]; plasma dilution 1:20, 10 mg/kg daunorubicin) was 8%. The “Inhibition, %” value (SKVLB cells [5]; plasma dilution 1:20, MTD of daunorubicin) was 0%, the “Inhibition, %” value (SKVLB cells [5]; plasma dilution 1:200, 10 mg/kg daunorubicin) was 0% and the “Inhibition, %” value (SKVLB cells [5]; plasma dilution 1:200, MTD of daunorubicin) was 0%. The “Inhibition, %” value (SKVLB cells [5]; plasma dilution 1:2000, 10 mg/kg daunorubicin) was 0%, the “Inhibition, %” value (SKVLB cells [5]; plasma dilution 1:2000, MTD of daunorubicin) was 0% and the inhibition at 0.0032 µg/mL [6] was 1%. For the same compound, the inhibition at 0.016 µg/mL [6] was 18%, the inhibition at 0.08 µg/mL [6] was 23% and the inhibition at 0.4 µg/mL [6] was 58%. It also gave an inhibition at 2 µg/mL [6] of 80%, an inhibition at 10 µg/mL [6] of 100% and an inhibition at 50 µg/mL [6] of 100%. It also gave an inhibition at 0.016 µg/mL [7] of 1%, an inhibition at 0.08 µg/mL [7] of 20% and an inhibition at 0.4 µg/mL [7] of 38%. For the same compound, the inhibition at 2 µg/mL [7] was 53%, the inhibition at 10 µg/mL [7] was 81% and the inhibition at 50 µg/mL [7] was 100%.
